Assay results published in patent US7345158B2, “Actin related cytoskeletal protein “LACS”” (Anges MG, Inc., priority 2002, dated 2008).
Positions of bridges follow the written chain, without caps; N, C: chain ends. No end group written: not given here.

Experiments:
[1] = tested on: LACS mRNA expression in cardiac tissues; assay: LACS mRNA expression in cardiac tissues of L-NAME-administered WKY rats (Northern blotting); type: in vivo, rat; details: male WKY rats, oral L-NAME 100 mg/L
Procedure: RNAs were extracted from the hearts of a male WKY rat group that has been subjected to a one-week oral administration of L-NAME (100 mg/L), and from the hearts of a control group without L-NAME administration. […] As a result, a novel LACS (L-NAME related actin cytoskeletal protein) gene was successfully isolated. […] Furthermore, mRNA expression in tissues other than the heart was also analyzed by Northern blotting. […] Particularly with the heart, the expression of LACS mRNA was confirmed in the myocardial cells.

[2] = tested on: LACS expression in cultured myocardial cells; assay: LACS protein expression in cultured myocardial cells under hypertrophic agonist stimulation; type: cell-based, rat; details: for LACS protein expression on hypertrophic agonist stimulation: primary cultured neonatal rat myocardial cells
Procedure: Primary cultures of myocardial cells isolated from neonatal rats (one- to three-day old) using trypsin and collagenase were prepared. For the first 24 to 48 hours, the cells were cultured in a serum-containing medium, and then for another 24 hours in a serum-free medium.
Myocardial cells cultured by the same method in Example 4 were used. First, cells were stimulated with the representative hypertrophic agonists, AngII, phenylephrine, and Endothelin-1.
LACS expression which increases upon phenylephrine stimulation was suppressed by the simultaneous administration of 10 μM of Y27632 (ROCK inhibitor; Calbiochem). […] Rho is a low-molecular-weight GTP-binding protein (small G protein) involved in the contraction of smooth muscles, and regulation of cytokinesis, cell motility, and cytomorphology, via reorganization of actin filaments.

[3] = tested on: LACS mRNA expression in the heart; assay: LACS mRNA expression in the hearts of AngII infusion rats; type: in vivo, rat; details: osmotic pump 0.7 mg/kg/day
Procedure: Cardiac tissues derived from AngII infusion rats (osmotic pump: 0.7 mg/kg/day), and SHRs of 4 weeks and 24 weeks, were used. ATIR antagonist (ARB) and hydrazine (Hyd) were used as antihypertensive agents. Each of the antihypertensive agents was used at an amount sufficient for lowering the blood pressure (10 mg/kg/day for ARB; 12 mg/kg/day for Hyd).

Row | Compound | LACS protein expression on hypertrophic agonist stimulation [2] | other results
1 | COC(=O)[C@@H](N)CCCN=C(N)N[N+](=O)[O-].Cl [L-NAME, N^G-Nitro-L-arginine methyl ester, hydrochloride] |  | LACS mRNA expression level in cardiac tissues after L-NAME administration [1]: reaches its peak one to three days after L-NAME administration
2 | C[C@@H](N)[C@H]1CC[C@H](C(=O)Nc2ccncc2)CC1 [Y27632] |  | Effect on the LACS expression increased by phenylephrine stimulation ([2]; cultured myocardial cells, simultaneous administration of 10 μM): suppressed
3 | CNC[C@H](O)c1cccc(O)c1 [phenylephrine] | found to increase | 
4 | Endothelin-1 (CSCSSLMDKECVYFCHLDIIW; disulfide 1-15, 3-11; ends not checked; UniProt P05305 53-73, looked up) [representative hypertrophic agonist] | found to increase | 
5 | angiotensin II (DRVYIHPF; Angiotensin-2; UniProt P01019 25-32, looked up) [AngII, representative hypertrophic agonist] | found to increase | LACS expression in the heart after AngII administration [3]: increased LACS expression after the third day
